Experimental data published in patent publication US9999690B2, “Labeled compounds and methods of imaging, diagnosing cartilage disorders and diseases, and monitoring cartilage health using labeled and unlabeled compounds” (Perosphere Inc., priority 2013, dated 2018).
Several values for one entry are separate records, joined by “and”; a condition that tells them apart may be missing. Equal values may be shown once.

Assay: Rat mass balance recovery (urine, feces, cage rinses and wipes, carcasses, expired air), Groups 2 and 3
Type: in vivo
Parameters: Mass Balance Recovery, Feces Subtotal / Mass Balance Recovery, Expired Air, Trap 1 / Mass Balance Recovery, Expired Air, Trap 1 Subtotal: unit not given here
Settings: for Mass Balance Recovery, Feces / Mass Balance Recovery, Cage Rinse / Mass Balance Recovery, Dose Site Wipe / Mass Balance Recovery, Urine / Mass Balance Recovery, Cage Wipe / Mass Balance Recovery, Carcass / Mass Balance Recovery, Feces Subtotal / Mass Balance Recovery, Cage Rinse Subtotal / Mass Balance Recovery, Urine Subtotal: rat Group 2, IV dose; for Mass Balance Recovery, Dose Site Wipe: 0 hrs; for Mass Balance Recovery, Cage Wipe / Mass Balance Recovery, Carcass: 96 hrs; for Mass Balance Recovery, Expired Air, Trap 1 / Mass Balance Recovery, Expired Air, Trap 1 Subtotal: rat Group 3, IV dose; for Mass Balance Recovery, TOTAL: rat Groups 2 and 3, IV dose
Procedure: A study was conducted to determine the pharmacokinetics, rates and routes of excretion with mass baseline and tissue distribution of radioactivity, after a single intravenous dose administration of formula XIII (also referred to as [^14C]DAP) was administered to the rats by tail vein intravenous injection at a
The study was conducted on 19 male rats divided into 4 groups. The first group of 6 rats was used for blood collection (Group 1); the second group of 4 rats was used for urine, feces, cage rinses and wipes and carcasses collection (Group 2); the third group of 4 rats was used for expired air collection (Group 3); the fourth group of 5 rats was used for terminal blood/serum and tissue distribution by Quantitative Whole-Body Autoradiography (QWBA) (Group 4).

[1] = 24-48 hrs, Mean, in % (unit assumed)
[2] = 24-48 hrs, individual rats 201M-204M, in % (unit assumed)
[3] = 48-72 hrs, Mean, in % (unit assumed)
[4] = 48-72 hrs, individual rats 201M-204M, in % (unit assumed)
[5] = 72-96 hrs, Mean, in % (unit assumed)
[6] = 72-96 hrs, individual rats 201M-204M, in % (unit assumed)
[7] = individual rats 201M-204M, in % (unit assumed)

[2H]C1([2H])N(CCCNC(=O)[C@@H](N)CCCNC(=N)N)C([2H])([2H])C([2H])([2H])N(CCCNC(=O)[C@@H](N)CCCNC(=N)N)C1([2H])[2H] [formula XIII]
Mass Balance Recovery, Feces (0-8 hrs, Mean, in % (unit assumed)): 0.02 | Mass Balance Recovery, Feces (0-8 hrs, individual rats 201M-204M): 0.00 and 0.04 (2×) and 0.01 | Mass Balance Recovery, Cage Rinse (0-24 hrs, Mean, in % (unit assumed)): 1.74 | Mass Balance Recovery, Cage Rinse (0-24 hrs, individual rats 201M-204M, in % (unit assumed)): 2.48 and 0.91 and 1.94 and 1.63 | Mass Balance Recovery, Dose Site Wipe (Mean): 0.01% | Mass Balance Recovery, Dose Site Wipe (individual rats 201M-204M): 0.01% (3×) and 0% | Mass Balance Recovery, Feces (8-24 hrs, Mean, in % (unit assumed)): 1.82 | Mass Balance Recovery, Feces (8-24 hrs, individual rats 201M-204M, in % (unit assumed)): 1.34 and 2.04 and 2.40 and 1.49 | Mass Balance Recovery, Cage Rinse [1]: 0.32 | Mass Balance Recovery, Feces [1]: 0.93 | Mass Balance Recovery, Urine [1]: 3.71 | Mass Balance Recovery, Feces (24-48 hrs, individual rats 201M-204M): 1.18 and 0.70 (2×) and 1.15 | Mass Balance Recovery, Cage Rinse [2]: 0.37 and 0.21 and 0.38 and 0.30 | Mass Balance Recovery, Urine [2]: 3.83 and 3.59 and 4.50 and 2.92 | Mass Balance Recovery, Cage Rinse [3]: 0.18 | Mass Balance Recovery, Feces [3]: 0.42 | Mass Balance Recovery, Urine [3]: 1.58 | Mass Balance Recovery, Urine (48-72 hrs, individual rats 201M-204M): 1.61% (2×) and 1.73% and 1.36% | Mass Balance Recovery, Cage Rinse [4]: 0.13 and 0.11 and 0.20 and 0.28 | Mass Balance Recovery, Feces [4]: 0.46 and 0.41 and 0.54 and 0.26 | Mass Balance Recovery, Cage Rinse [5]: 0.16 | Mass Balance Recovery, Feces [5]: 0.25 | Mass Balance Recovery, Urine [5]: 0.94 | Mass Balance Recovery, Cage Rinse [6]: 0.12 and 0.11 and 0.24 and 0.15 | Mass Balance Recovery, Feces [6]: 0.31 and 0.26 and 0.27 and 0.15 | Mass Balance Recovery, Urine [6]: 0.97 and 1.03 and 0.96 and 0.79 | Mass Balance Recovery, Cage Wipe (Mean, in % (unit assumed)): 0.10 | Mass Balance Recovery, Carcass (Mean, in % (unit assumed)): 2.71 | Mass Balance Recovery, Cage Wipe [7]: 0.08 and 0.06 and 0.20 and 0.04 | Mass Balance Recovery, Carcass [7]: 2.74 and 2.80 and 2.60 and 2.68 | Mass Balance Recovery, Feces Subtotal (Mean): 3.44 | Mass Balance Recovery, Cage Rinse Subtotal (Mean, in % (unit assumed)): 2.39 | Mass Balance Recovery, Urine Subtotal (Mean, in % (unit assumed)): 89.51 | Mass Balance Recovery, Feces Subtotal (individual rats 201M-204M): 3.29 and 3.45 and 4.37 and 2.64 | Mass Balance Recovery, Cage Rinse Subtotal [7]: 3.10 and 1.34 and 2.76 and 2.36 | Mass Balance Recovery, Urine Subtotal [7]: 89.44 and 90.60 and 87.85 and 90.14 | Mass Balance Recovery, Expired Air, Trap 1 (0-24 hrs, Mean): 0.03 | Mass Balance Recovery, Expired Air, Trap 1 (0-24 hrs, individual rats 301M-304M): 0.03 (3×) and 0.02 | Mass Balance Recovery, Expired Air, Trap 1 (24-48 hrs, Mean): 0.00 | Mass Balance Recovery, Expired Air, Trap 1 (24-48 hrs, individual rats 301M-304M): 0.00 | Mass Balance Recovery, Expired Air, Trap 1 (48-72 hrs, Mean): 0.01 | Mass Balance Recovery, Expired Air, Trap 1 (48-72 hrs, individual rats 301M-304M): 0.00 (3×) and 0.05 | Mass Balance Recovery, Expired Air, Trap 1 Subtotal (Mean): 0.04 | Mass Balance Recovery, Expired Air, Trap 1 Subtotal (individual rats 301M-304M): 0.03 (2×) and 0.02 and 0.08 | Mass Balance Recovery, TOTAL ((201M/301M to 204M/304M), in % (unit assumed)): 98.72 and 98.32 and 97.83 and 97.98 | Mass Balance Recovery, TOTAL (Mean, in % (unit assumed)): 98.21 | time after administration by which the vast majority is excreted (urinary excretion kinetics) (rat, single IV dose, FIG. 6): < 24 h | total recovery (rat, single intravenous administration, Groups 2 and 3, FIG. 8): 98.21±0.4%
